Earlier results in the CATMoS acute toxicity set (Mansouri et al. 2021).
Several values for one entry are separate records, joined by “and”; a condition that tells them apart may be missing. Equal entries are not always repeated.

Assay: rat acute oral toxicity
Conditions: in vivo

For `O=[N+]([O-])c1ccc(Oc2c(Cl)cc(Cl)cc2Cl)cc1`, which LD50 is on record?
The LD50 was 10800 mg/kg.

With `C/C=C/C=C/C(=O)O` as the compound, how does the LD50 read?
Its LD50 is 7360 mg/kg and 4340 mg/kg and 7160 mg/kg.

For `CC(=O)NNc1ccc(N)cc1`, which LD50 is on record?
Its LD50 is 10 mg/kg.

With `CCC(N)Cc1c[nH]c2ccccc12` (stereo unspecified) as the compound, how does the LD50 read?
The LD50 was 49 mg/kg.

Which LD50 does the source give for `O=c1c2cccnc2oc2c(Cl)cc(-c3nn[nH]n3)cc12` here?
The LD50 was 16000 mg/kg.

Which LD50 does the source give for `Cc1cccc(N)n1` here?
Its LD50 is 100 mg/kg.

Which LD50 does the source give for `C#CC(C)(CCC=C(C)C)OC(C)=O` (stereo unspecified) here?
Its LD50 is 9620 mg/kg.

Which LD50 does the source give for `O=C(Cn1ccnc1)c1ccc2ccccc2c1` here?
Its LD50 is 504 mg/kg.

Which LD50 does the source give for `Cc1ccccc1N1C(=O)C=CC1=O` here?
Its LD50 is 250 mg/kg.

For `CC(Cl)=CC(=O)Nc1ccc(O)cc1`, which LD50 is on record?
Its LD50 is 1580 mg/kg.

For `COC(=O)C1=C(C#N)NC(C)=C(C(=O)OC(C)C)C1c1cccc([N+](=O)[O-])c1` (stereo unspecified), which LD50 is on record?
Its LD50 is 1560 mg/kg.

With `Cc1ccc(B2OCC3(CO2)COB(c2ccc(C)cc2)OC3)cc1` as the compound, how does the LD50 read?
Its LD50 is 1130 mg/kg.

Which LD50 does the source give for `CCCCC(CC)COS(=O)(=O)O` (stereo unspecified) here?
The LD50 was 4120 mg/kg.

Which LD50 does the source give for `CN=C(O)O/N=C1\SCOC1C(C)C` (stereo unspecified) here?
The LD50 was 16 mg/kg.

Which LD50 does the source give for `CCC(C)OC(CBr)c1cccc(Cl)c1` (stereo unspecified) here?
Its LD50 is 250 mg/kg.

With `CCOP(=S)(OCC)Oc1cnc2ccccc2n1` as the compound, how does the LD50 read?
Its LD50 is 26 mg/kg.

With `CCCCNC(=O)NS(=O)(=O)c1ccc(C)cc1` as the compound, how does the LD50 read?
The LD50 was 2490 mg/kg.

For `CCN(CCO)c1ccc(N=O)c(C)c1`, which LD50 is on record?
The LD50 was 336 mg/kg.

For `CN=c1oc2ccccc2n1C`, which LD50 is on record?
Its LD50 is 1000 mg/kg.

For `CCCC(C(=O)OCCN(CC)CC)(c1ccccc1)c1ccccc1`, which LD50 is on record?
The LD50 was 2140 mg/kg.

With `O=C1c2ccccc2C(=O)c2c(Nc3ccc(Oc4ccc(S(=O)(=O)O)cc4)cc3)ccc(Nc3ccc(Oc4ccc(S(=O)(=O)O)cc4)cc3)c21` as the compound, how does the LD50 read?
The LD50 was 8550 mg/kg.

With `O=[N+]([O-])c1cccc2nc3ccccc3c(NCCN(CCO)CCO)c12` as the compound, how does the LD50 read?
Its LD50 is 176 mg/kg.

For `O=C(O)c1cc(Cl)ccc1O`, which LD50 is on record?
Its LD50 is 250 mg/kg.

With `CCS(=O)(=O)CCSP(=O)(OC)OC` as the compound, how does the LD50 read?
Its LD50 is 32.4 mg/kg.

With `NC(C(=O)O)c1ccccc1` (stereo unspecified) as the compound, how does the LD50 read?
The LD50 was 3030 mg/kg.

With `COC(=O)C1(O)c2ccccc2-c2ccc(Cl)cc21` (stereo unspecified) as the compound, how does the LD50 read?
The LD50 was 3100 mg/kg.

For `CCCCC(CC)OCCOCCO` (stereo unspecified), which LD50 is on record?
Its LD50 is 2940 mg/kg.

For `O=C=Nc1ccc(Cc2ccc(N=C=O)cc2)cc1`, which LD50 is on record?
Its LD50 is 9200 mg/kg.

Which LD50 does the source give for `COc1cc(N)c2c(c1N)C(=O)c1ccccc1C2=O` here?
Its LD50 is 891 mg/kg.

Which LD50 does the source give for `C=CC(=O)OCCCCCCCCCC` here?
Its LD50 is 6460 mg/kg.

With `FC(F)(F)c1nc2cc(Cl)c(Cl)cc2[nH]1` as the compound, how does the LD50 read?
Its LD50 is 7.88 mg/kg.

Which LD50 does the source give for `CC1OC1C1CCC2(C)OC2C1` (stereo unspecified) here?
Its LD50 is 5630 mg/kg.

Which LD50 does the source give for `Cc1cccnc1N` here?
The LD50 was 100 mg/kg.

With `COP(=O)(OC)Sc1ccc([N+](=O)[O-])cc1` as the compound, how does the LD50 read?
Its LD50 is 42.9 mg/kg.

Which LD50 does the source give for `CCOP(=S)(OCC)SCSc1ccc(Cl)c(Cl)c1` here?
Its LD50 is 89 mg/kg.

Which LD50 does the source give for `COCCCO` here?
The LD50 was 5710 mg/kg.

Which LD50 does the source give for `OCCN1CC1` here?
The LD50 was 74 mg/kg.

For `C#CCN1C(=O)CN=C(c2ccccc2)c2cc(Cl)ccc21`, which LD50 is on record?
Its LD50 is 5820 mg/kg.

With `Nc1ccccc1-c1ccccc1` as the compound, how does the LD50 read?
Its LD50 is 2340 mg/kg.

With `CC(C)=NN=C(C)C` as the compound, how does the LD50 read?
Its LD50 is 423 mg/kg.

With `COc1cc(NC(=O)CC(C)=O)c(OC)cc1Cl` as the compound, how does the LD50 read?
Its LD50 is 850 mg/kg.

With `NS(=O)(=O)c1cc(C(=O)O)cc(N2CCCC2)c1Oc1ccccc1` as the compound, how does the LD50 read?
The LD50 was 5600 mg/kg.

With `C(=NC1CCCCC1)=NC1CCCCC1` as the compound, how does the LD50 read?
Its LD50 is 400 mg/kg.

Which LD50 does the source give for `C=COCCO` here?
Its LD50 is 3910 mg/kg.

Which LD50 does the source give for `CCN(CCCC(=O)C1CCCCC1)C(C)Cc1ccc(OC)cc1` (stereo unspecified) here?
Its LD50 is 369 mg/kg.

For `CCc1ccc(=O)n(CSP(=S)(OC)OC)n1`, which LD50 is on record?
Its LD50 is 30 mg/kg.

Which LD50 does the source give for `CC1(C)C2CCC1(C)C(Oc1ccc(N)cc1)C2` (stereo unspecified) here?
The LD50 was 660 mg/kg.

With `C=CCOc1ccccc1C(=O)N(C)C` as the compound, how does the LD50 read?
The LD50 was 740 mg/kg.

With `CCOP(=S)(OCC)Oc1ccc(Cl)c([N+](=O)[O-])c1` as the compound, how does the LD50 read?
The LD50 was 100 mg/kg.

With `N#CCCNCCC#N` as the compound, how does the LD50 read?
The LD50 was 2700 mg/kg.

Which LD50 does the source give for `O=[N+]([O-])c1cccc2[nH]c(C(F)(F)F)nc12` here?
The LD50 was 10.6 mg/kg.

With `CCCCOC(=S)S` as the compound, how does the LD50 read?
The LD50 was 456 mg/kg.

For `CCCCC[C@H](O)/C=C/[C@H]1[C@H](O)CC(=O)[C@@H]1CCCCCCC(=O)O`, which LD50 is on record?
Its LD50 is 228 mg/kg.

Which LD50 does the source give for `CC[N+](C)(C)CCC(C(N)=O)(c1ccccc1)c1ccccc1` here?
Its LD50 is 1350 mg/kg.

Which LD50 does the source give for `CCO[SiH](Cl)OCC` here?
Its LD50 is 6300 mg/kg.

With `CCOC(=S)SSC(=S)OCC` as the compound, how does the LD50 read?
The LD50 was 480 mg/kg.

For `Cc1cncc(CN2CCC(=C3c4ccc(Cl)cc4CCc4cccnc43)CC2)c1`, which LD50 is on record?
The LD50 was 1000 mg/kg.

For `COC(=N)N`, which LD50 is on record?
Its LD50 is 3700 mg/kg.

Which LD50 does the source give for `COC(=O)C(C)Oc1ccc(Oc2ncc(C(F)(F)F)cc2Cl)cc1` (stereo unspecified) here?
The LD50 was 393 mg/kg.

Which LD50 does the source give for `COc1ccccc1N1CCN(CCCc2ccc3c(c2)CCC(=O)N3)CC1` here?
The LD50 was 500 mg/kg.

For `CC(Cc1ccccc1)OC(N)=O` (stereo unspecified), which LD50 is on record?
Its LD50 is 1100 mg/kg.

For `CC(C)=CCCC(C)CC(=O)O` (stereo unspecified), which LD50 is on record?
Its LD50 is 2610 mg/kg.

Which LD50 does the source give for `Sc1nc2ccccc2s1` here?
The LD50 was 100 mg/kg.

With `Nc1ccc2[nH]c3ccc(N)cc3c2c1` as the compound, how does the LD50 read?
Its LD50 is 1040 mg/kg.

With `S=C1NCNCN1` as the compound, how does the LD50 read?
The LD50 was 4.6 mg/kg.

With `COP(=O)(Oc1ccc([N+](=O)[O-])c(C)c1)SC` (stereo unspecified) as the compound, how does the LD50 read?
Its LD50 is 315 mg/kg.

With `C#CC(C)(C)N` as the compound, how does the LD50 read?
Its LD50 is 1470 mg/kg.

For `CC(=O)C(C)(C)C`, which LD50 is on record?
The LD50 was 610 mg/kg.

For `NC(=S)Nc1cc(Cl)ccc1Cl`, which LD50 is on record?
Its LD50 is 300 mg/kg.

With `N#Cc1cc2[nH]c(C(F)(F)F)nc2c(Cl)c1Cl` as the compound, how does the LD50 read?
The LD50 was 3960 mg/kg.

With `C1CS1` as the compound, how does the LD50 read?
The LD50 was 178 mg/kg.

With `CCOc1ccccc1N1CCN(C(=O)CCC2CCCCC2)CC1` as the compound, how does the LD50 read?
The LD50 was 2420 mg/kg.

For `C=CCOC(=O)c1ccc(C(=O)OCC=C)c(C(=O)OCC=C)c1`, which LD50 is on record?
The LD50 was 2400 mg/kg.

For `Nc1ccc(Oc2ccc(C(c3ccc(Oc4ccc(N)cc4)cc3)(C(F)(F)F)C(F)(F)F)cc2)cc1`, which LD50 is on record?
Its LD50 is 1340 mg/kg.

Which LD50 does the source give for `CCOc1cc(OCC)c(C(=O)CCC(=O)O)cc1OCC` here?
The LD50 was 2450 mg/kg.

Which LD50 does the source give for `C1OC1CSCC1CO1` (stereo unspecified) here?
The LD50 was 32 mg/kg.
